Reference: patent US4863748A, “Dietary products and uses comprising methylsulfonylmethane” (priority 1986, dated 1989)

Key:
[1] = system: myositis ossificans generalis; experiment: Myositis ossificans generalis (Example 35); format: in vivo, human; settings: one teaspoon orally in split daily doses, nearly two years
Excerpt: Their family belongs to a group of families each with a family member suffering from the disease. They have been on one teaspoon of methylsulfonylmethane orally, in split daily doses for nearly two years. […] No other child in the group is on methylsulfonylmethane and all are deteriorating physically. The disease cause is unknown but probably is a genetic/autoimmune type of disorder.

[2] = system: rheumatoid arthritis and other intense pain-producing disease; experiment: Intravenous administration in acute intense pain-producing disease; format: in vivo, human
Excerpt: In U.S. Pat. No. 4,296,130, I teach that methylsulfonylmethane is so inert and non-toxic that aqueous solutions thereof can be used as a blood diluent. In healthy humans or other animals having adequately high methylsulfonylmethane blood levels, methylsulfonylmethane is in fact "inert" in the sense the term is used in that patent. However, in acutely ill patiets, dramatic beneficial benefits are often obtained by the intravenous administration of large doses of methylsulfonylmethane. For example, rheumatoid arthritic patients suffering from a flair-up of the disease which produces intense pain or crippling swelling of the joints or both achieve prompt relief, even those patients who obtain only minimal or delayed benefits from oral ingestion of methylsulfonylmethane.
Apparently, when a patient is in an acute stage of intense pain-producing disease, such as rheumatoid arthritis, osteoporosis, degenerative disc syndrome, an autoimmune disease or metathesized carcinoma, which produces intense pain, the relief from pain from oral ingestion of methylsulfonylmethane is sometimes too subtle or takes too long for the patient to obtain reasonably prompt subjective benefits therefrom.
Therefore, in one aspect this invention relates to a method for rapidly ameliorating at least the pain associated with an intense pain-producing disease by the intravenous administration of methylsulfonylmethane in an amount effective to ameliorate the pain.
The amount of methylsulfonylmethane intravenously administered can vary substantially because of its lack of toxicity and adverse side effects. Individual doses can vary from about 0.01 to 2 gm/kg, preferably from about 0.1 to 1 gm/kg, on a body weight basis, the usual dosage range is about 0.25 to 0.75 gm/kg, preferably about 0.5 gm/kg.
When large amounts are administered, e.g., in the order of 1 g/kg of body weight or more, i.e., infusion of 5% to 10% solution of methylsulfonylmethane in water, physiological saline or 5% dextrose is preferred. The rate of administration is preferably no greater than about 1 gm/kg/hr, although infusion rates as high as 2 gm/kg/hr are tolerated by patients, except for light-headedness of the type experienced by some blood donors is experienced by some patients at this rate.
For patients suffering from a serious chronic disease, e.g., an acute stage of rheumatoid arthritis or other acute inflammatory conditions or a patient in extreme pain, administer 1 gm/kg of methylsulfonylmethane i.v. as a 14% by wt. solution in sterile 5% dextrose solution, at the rate of 1 gm/kg/hr. Within 2-4 hours, significant subjective relief from the symptoms of the disease or condition is experienced by the patient, with the relief lasting for from 7 to 21 days.

[3] = system: platelet count; experiment: Low platelet count in lupus erythematosus (Example 22); format: in vivo, human; settings: 1.5 gm/day in 3 doses, 2-year period
Excerpt: Methylsulfonylmethane administered orally raised the platelet count of an adult with lupus erythematosus from 84,000 (after prednisone therapy) to 200,000 over a 2-year period (1.5 gm/day in 3 doses).

[4] = system: stress death; experiment: Stress death in fish (Example 10); format: in vivo, Goldfish; settings: 2% by weight in feed, 25 fish; control 11 deaths
Procedure: 62 Goldfish, about 2 inches long, were divided into two 31 population lots and placed in acclimated aquariums (2) maintained at 50° F. On receipt of the fish, two small one gallon aquariums were filled with tap water and stablized for 5 days by aeration with an aerator/filter combination connected to a common aquarium air pump. Air delivery during the test period was standardized at 100 ml of air per minute. From a 1 oz. package of "Wardleys" goldfish food two 10 gram samples were removed. One sample was untreated and the other was moistened with about one ml of pure ethanol containing 0.2 gram methylsulfonylmethane in solution. The feed absorbed all the methylsulfonylmethane (the lot after air drying for 48 hours weighed 10.2 grams). Both feeds were pulverized to a coarse powder suitable for feeding small fish.
The 31 fish in each of the two holding aquariums were identified as batch A and batch B. During the acclimatization and test periods the batch A fish were fed 0.5 gram of untreated "Wardleys" food once daily. Batch B fish were fed 0.5 gram of the feed containing the methylsulfonylmethane during the acclimatization and test periods. Neither batch A nor B consumed all of the feed as some eventually collected in the fiberglass filter. However, most of each feeding was consumed in the first 5-10 minutes after delivery. […]

[5] = system: mammary tumors; settings: abdominal DMBA; in drinking water; tumors in control animals; cited from earlier work
[6] = system: arthritic patients; experiment: Chemical profile of arthritic patients; format: in vivo, human; settings: drop from 600+
Excerpt: 8. Improving the chemical profile of arthritic patients, e.g., providing relief from pain and stiffness, reduced swelling and inflammation, coupled with a return of blood chemistry towards normalcy, for example, a RH titer drop from 600+to 300 or lower.

[7] = system: weight gain; experiment: Diet supplement in animals (Example 18); format: in vivo, laboratory animals, including dogs
Excerpt: A possible explanation for this is that any minor allergic response to the diet was neutralized by the methylsulfonylmethane.

[8] = system: Trichomonas vaginalis; experiment: In vitro culture of Trichomonas vaginalis (Example 28(a)); format: cell-based, Trichomonas vaginalis Strain ATCC No. 30001
Procedure: Methylsulfonylmethane has highly variable toxicities for various nematodes. Based on this discovery, tests were conducted on several parasites adverse to the health of vertebrates
Strain ATCC No. 30001 was cultured in vitro employing diamonds tym medium. Methylsulfonylmethane was added thereto at levels varying from 5.5 to 109.3 mg/ml. At concentrations of 5.5 to 10.9 mg/ml, the methylsulfonylmethane had no effect on this protozoan.

[9] = 1 gm/kg i.v., 14% solution in 5% dextrose, 1 gm/kg/hr (Example 34)
[10] = about 60 and about 500 mg/day/kg body wt.

With `CS(C)(=O)=O` [methylsulfonylmethane] the “condition of the patient” value [1] was “out of their wheelchair and is improving”, the disease process ([1]; child A. Z.) was “stopped” and the duration of relief [2, 9] was 7 to 21 days. The “time to significant subjective relief from symptoms” value [2, 9] was 2 to 4 h, the “time to relief from pain” value ([2]; i.v.) was “within hours and often within minutes” and the “relief in flare-up of rheumatoid arthritis” value ([2]; i.v., large doses) was “prompt relief”. The “duration of remission maintained with oral ingestion after one i.v. administration” value ([2]; one i.v., then oral) was “weeks or months”, the platelet count [3] was 200,000 and the “deaths in aquarium by day ten” value [4] was “one”. The development of tumors [5] was “did not develop tumors”, the RH titer [6] was no more than 300 and the fur quality [7, 10] was “improved”. The nail growth [7, 10] was “somewhat faster”, the “weight gain of immature animals vs controls” value [7, 10] was “gained weight at a greater rate” and the “weight increases with adult animals” value ([7]; comparable feeding experiments) was “not seen”. For the same molecule, the lethal concentrations ([8]; all higher concentrations tested, to 109.3 mg/ml) was greater than 21.9 mg/mL, the “activity relative to metronidazole HCL” value ([8]; in vitro, based on this assay) was “about half” and the “concentration with no effect on this protozoan” value ([8]; in vitro, diamonds tym medium) was 5.5 to 10.9 mg/mL.
